Results: article PMC4710668, “Bioactivation of food genotoxicants 5-hydroxymethylfurfural and furfuryl alcohol by sulfotransferases from human, mouse and rat: a comparative study” (Archives of Toxicology, 2014)

Key:
Test in all cases: FFA sulfoconjugation assay (N6-MF-A formation with adenosine as scavenger)
Format in all cases: biochemical
hSULT2B1a = target: T1, hSULT2B1a (Homo sapiens, UniProt O00204)
T1 construct: made in house; host or cells: Salmonella typhimurium TA1538 (cytosolic fraction, not purified)
T1 sequence (O00204 1-350 isoform O00204-2): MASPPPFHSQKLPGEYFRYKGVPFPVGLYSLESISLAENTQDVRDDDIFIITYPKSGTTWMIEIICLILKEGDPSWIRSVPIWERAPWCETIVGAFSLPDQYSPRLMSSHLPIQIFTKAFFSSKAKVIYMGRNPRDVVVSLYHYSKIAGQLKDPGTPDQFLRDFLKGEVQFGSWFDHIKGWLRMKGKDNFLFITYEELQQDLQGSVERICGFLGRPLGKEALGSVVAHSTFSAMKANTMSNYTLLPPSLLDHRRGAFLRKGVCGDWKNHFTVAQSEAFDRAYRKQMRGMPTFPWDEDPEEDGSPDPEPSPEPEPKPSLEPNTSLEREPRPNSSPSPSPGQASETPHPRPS
Protocol: (§1) Cytosolic fractions containing individual SULT forms were prepared from transgenic S. typhimurium TA1538. Table S1 in the Supplementary Material provides a summary of the thirty SULTs used in the current study together with references describing the cloning of the respective S. typhimurium TA1538 strains. The expressed SULT forms are denoted with the prefixes h, m and r for human, mouse and rat enzymes, respectively. Bacteria were grown in Luria Broth medium containing ampicillin (100 µg/ml) by stirring for 8 h at 200 revolutions/min at 37 °C. The bacterial suspensions were centrifuged at 5,000 g for 10 min. The sediments were washed twice with 25 ml of 10 mM potassium phosphate buffer (pH 7.4)/50 mM potassium chloride (KCP buffer) and centrifuged again. The pellets were taken up in 800 µl KCP buffer and sonicated thrice for 15 s with 30 s pauses in between. The soluble fraction was attained by centrifuging for 1 h at 100,000 g. The supernatants (in the following termed cytosolic preparations) were frozen at −80 °C. The protein concentrations were determined according to a bicinchoninic acid (BCA) assay protocol. The SULT concentrations in the cytosolic preparations were estimated after electrophoretic separation and immunodetection using inclusion bodies of different SULT forms as standards (Teubner et al. [2007]). The preparation of SULT inclusion bodies and the immunodetection of SULTs is described in the Supplementary Material, which also contains a representative immunoblot of different amounts of rSult1a1standard and a cytosolic preparation of S. typhimurium expressing rSult1a1 (Fig. S1).
(§2) The reaction mixtures were prepared as described for HMF. In addition, they contained 10 mM adenosine as a nucleophilic scavenger. Following incubation for 20 min at 37 °C, sulfoconjugation reactions were stopped by adding 100 µl cold methanol containing 175 fmol of [^15N5]N ^6-MF-A as the internal standard, mixed and centrifuged at 15,000 g for 10 min. The clear supernatants were subjected to UPLC-MS/MS analyses. Incubations were performed as quadruplicates. At higher concentrations, FFA reacts spontaneously with adenosine at low, but detectable, levels. To correct for the SULT-independent adduct formation, mixtures with SULT-deficient cytosols were carried along simultaneously in duplicate. Controls were subtracted from the experimental samples.
(§3) The ribonucleoside adduct N ^6-((furan-2-yl)methyl)-adenosine (N ^6-MF-A) was analyzed by isotope-dilution UPLC-MS/MS with the same system described above using a HSS T3 column (1.8 µm, 2.1 × 100 mm, Waters). Samples of 8 µl were eluted with 10 mM ammonium bicarbonate buffer, pH 8.0 (A) and methanol (B) using an 6-min gradient from 98 % solvent A to 15 % solvent A at 0.35 ml/min flow rate (Yin et al. [2013]). The electrospray interface of the mass spectrometer operated in the positive ion mode. The fragmentations of N ^6-MF-A into the aglycone cation [N ^6-((furan-2-yl)methyl)-adenine-H]^+ (m/z = 348.1 → 216.1), the cleavage of the 2-methylfuranyl cation (m/z = 348.1 → 81.0) and the release of [N ^6-methyl-adenine-H]^+ (m/z = 348.1 → 148.0) were monitored together with the corresponding fragmentations of the isotope-labeled internal standard [^15N5]N ^6-MF-A for the formation of the aglycone (m/z = 353.1 → 221.1), the 2-methylfuran cation (m/z = 353.1 → 81.0) and ^15N5-labeled N ^6-methyl-adenine (m/z = 353.1 → 153.0). The N ^6-MF-A content of the incubation mixture was calculated from the ratio of peak areas resulting from the total ion current of all three MRM signals of the analyte. For the fragmentation of N ^6-MF-A ([^15N5]N ^6-MF-A), collision energies were 20, 25 and 35 eV for the transitions m/z = 348.1 → 216.1 (m/z = 353.1 → 221.1), m/z = 348.1 → 148.0 (m/z = 353.1 → 153.0) and m/z = 348.1 → 81.0 (m/z = 353.1 → 81.0), respectively. […]

mSult2a1 = target: T2, mSult2a1 (Mus musculus, UniProt P52843)
T2 construct: made in house; host or cells: Salmonella typhimurium TA1538 (cytosolic fraction, enzyme not purified)
T2 sequence (P52843 1-285): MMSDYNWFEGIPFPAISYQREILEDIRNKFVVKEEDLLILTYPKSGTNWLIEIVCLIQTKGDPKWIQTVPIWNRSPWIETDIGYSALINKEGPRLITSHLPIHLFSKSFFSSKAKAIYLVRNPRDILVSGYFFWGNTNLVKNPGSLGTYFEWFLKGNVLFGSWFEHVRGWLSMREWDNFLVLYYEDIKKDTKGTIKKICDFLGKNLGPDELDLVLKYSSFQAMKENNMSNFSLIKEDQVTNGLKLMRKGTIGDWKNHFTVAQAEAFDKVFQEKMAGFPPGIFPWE
Protocol: as §1, §2, §3

rSult2a1 = target: T3, rSult2a1 (Rattus norvegicus, UniProt P15709)
T3 construct: made in house; host or cells: Salmonella typhimurium TA1538 (cytosolic fraction, enzyme not purified)
T3 sequence (P15709 1-284): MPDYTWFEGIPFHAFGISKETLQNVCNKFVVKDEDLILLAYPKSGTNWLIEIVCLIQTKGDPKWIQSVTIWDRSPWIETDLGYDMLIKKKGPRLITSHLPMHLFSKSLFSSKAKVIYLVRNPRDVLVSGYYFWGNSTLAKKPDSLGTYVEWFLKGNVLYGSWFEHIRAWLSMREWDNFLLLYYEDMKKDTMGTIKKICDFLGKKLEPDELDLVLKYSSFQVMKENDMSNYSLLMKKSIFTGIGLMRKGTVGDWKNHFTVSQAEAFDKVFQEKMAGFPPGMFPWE
Protocol: as §1, §2, §3

OCc1ccco1 [FFA, furfuryl alcohol]
Rate of N6-MF-A formation (hSULT2B1a; 0.1 mM FFA): <18 fmol N ^6-MF-A/mg/min
Rate of N6-MF-A formation (hSULT2B1a; 1 mM FFA): <20 fmol N ^6-MF-A/mg/min
Rate of N6-MF-A formation (hSULT2B1a; 10 mM FFA): <44 fmol N ^6-MF-A/mg/min
Rate of N6-MF-A formation (mSult2a1; 0.1 mM FFA): <18 fmol N ^6-MF-A/mg/min
Rate of N6-MF-A formation (mSult2a1; 1 mM FFA): <20 fmol N ^6-MF-A/mg/min
Rate of N6-MF-A formation (mSult2a1; 10 mM FFA): 154 ± 2 fmol N ^6-MF-A/mg/min
Rate of N6-MF-A formation (rSult2a1; 0.1 mM FFA): <18 fmol N ^6-MF-A/mg/min
Rate of N6-MF-A formation (rSult2a1; 1 mM FFA): 24.8 ± 1.4 fmol N ^6-MF-A/mg/min
Rate of N6-MF-A formation (rSult2a1; 10 mM FFA): 228 ± 7 fmol N ^6-MF-A/mg/min
